From US20240246943A1, “MULTIFACETED APPROACH TO NOVEL INTERLEUKIN-6 INHIBITORS” (UNIVERSITY OF FLORIDA RESEARCH FOUNDATION, INCORPORATED, priority 2021, published 2024) come the findings set out here.

Holding throughout (type): cell-based
The subject of one test is induced p-STAT1. Nature of the test: Selectivity study, western blot, T47D cells, IFN stimulation. Particulars: T47D breast cancer cells, compound, then cytokine. The protocol:
(§1) Cells were harvested and lysed in cold radioimmunoprecipitation assay (RIPA) lysis buffer containing proteasome inhibitor cocktail and phosphatase inhibitor cocktail. The protein concentrations were determined using the BCA Protein Assay kit. After adding the loading buffer and boiling at 95° C. for 10 minutes, equivalent amounts of proteins were loaded on and separated by SDS-PAGE, and then were transferred to PVDF membranes. Membranes were probed with primary antibodies (1:1000) against gp130 and GAPDH. Membranes were analyzed using Enhanced Chemiluminescence Plus reagents and either scanned with the Storm Scanner (Amersham Pharmacia Biotech, Inc., Piscataway, NJ) or imaged with ChemiDoc MP imaging system (Bio-Rad, Hercules, CA).
(§2) Inhibition of downstream STAT3 phosphorylation was performed. T47D breast cancer cells, which lack endogenous IL-6, were treated with LLM418-MCBu for 2 hours. Then, cytokine was administered for 30 minutes (IL-6, INF, LIF, or OSM). Western blot conducted afterwards to assess dose-dependent inhibition of IL-6 signaling (or lack thereof) (FIG. 5).
On the technique in general: Immunoblotting shows a protein as a band on a membrane.

Test [1] relates to MDA-MB-231 breast cancer cells. Nature of the test: MTT cell viability assay, MDA-MB-231. Particulars: Homo sapiens, MDA-MB-231, MTT, 72 hours, Inactive = no measurable activity at 20 μM. The protocol: (§3) Cell viability of MDA-MB-231 breast cancer cells was evaluated by using the MTT assay in triple replicates in one experiment and repeated for three times (FIG. 3). […] The cells were incubated at 37° C. for a period of 24 hours. Escalating concentrations of IL-6/gp130 inhibitors (e.g., compounds of Formula (A), (B), (C), (D), (E), or (F) including LLM-418, bazedoxifene, LS-28-3, and COMP-D (LS-101-D)) were added in triplicate to the plates in the presence of 10% FBS. After incubation for 72 hours (unless otherwise noted), a stock solution of MTT (0.5 mg/ml) was then added to each well containing the treated cells, followed by incubation at 37° C. for 3 h. After removal of medium, the MTT dye was dissolved with spectrophotometric grade DMSO and the absorbance was read at 570 nm. The IC50 value is determined by interpolation based on the absorbance value halfway between positive and negative controls.
(In general: Formazan colour is commonly taken as a measure of viable cells.)

Test [2] relates to SUM159 gp130ko breast cancer cells. Nature of the test: MTT cell viability assay, SUM159 gp130ko. Particulars: SUM159, Table 1 batch studies, 72 hours, read-out: IC50 Values in Breast Cancer Cell Lines, SUM159 gp130ko. Here is the method: as §3
In a further test the test system is IL-6 induced p-STAT3. Nature of the test: Selectivity study, western blot, T47D cells, IL-6 stimulation. Particulars: T47D breast cancer cells, compound 2 hours, then cytokine 30 minutes. The protocol:
as §1, §2

In test [3] the test system is MDA-MB-231 Bone Metastatic breast cancer cells. The test can be described thus: MTT cell viability assay, MDA-MB-231 Bone Metastatic. Particulars: Homo sapiens, 72 hours. The protocol: as §3
Test [4] deals with SUM159 breast cancer cells. Nature of the test: MTT cell viability assay, SUM159. Particulars: 72 hours, Inactive = no measurable activity at 20 μM. The protocol: Cell viability of MDA-MB-231 breast cancer cells was evaluated by using the MTT assay in triple replicates in one experiment and repeated for three times (FIG. 3). MDA-MB-231 SUM159, SUM159 […], MDA-MB-231 breast cancer cells or SUM149 or HCC1937 BRCA mutant breast cancer cells were seeded in 96-well plates at a density of 3,000 cells per well. The cells were incubated at 37° C. for a period of 24 hours. Escalating concentrations of IL-6/gp130 inhibitors (e.g., compounds of Formula (A), (B), (C), (D), (E), or (F) including LLM-418, bazedoxifene, LS-28-3, and COMP-D (LS-101-D)) were added in triplicate to the plates in the presence of 10% FBS. After incubation for 72 hours (unless otherwise noted), a stock solution of MTT (0.5 mg/ml) was then added to each well containing the treated cells, followed by incubation at 37° C. for 3 h. After removal of medium, the MTT dye was dissolved with spectrophotometric grade DMSO and the absorbance was read at 570 nm. The IC50 value is determined by interpolation based on the absorbance value halfway between positive and negative controls.

For a further test, the system named is pSTAT3 in TNBC cell line. The test can be described thus: pSTAT3 inhibition in TNBC cell line (FIG. 8). Particulars: compound, then cytokine. Here is the method:
(§4) FIG. 8 depicts TNBC, BRCA-mutant, and T47D cells stimulated with LLM418-MCBU, then cytokine.
as §1

The subject of the next test is pSTAT3 in T47D cell line. The test can be described thus: pSTAT3 inhibition in T47D cell line (FIG. 8). Particulars: compound, then cytokine. The protocol: as §4, §1
Test [5] concerns pSTAT3 in BRCA-mutant cell line. The test can be described thus: pSTAT3 inhibition in BRCA-mutant cell line (FIG. 8). Particulars: compound, then cytokine. Here is the method:
as §4, §1

Test [6] has as its system HCC1937 BRCA-mutant TNBC cells. Nature of the test: Cell viability, combination with PARP inhibitor talazoparib (FIG. 9). Particulars: LLM418-MCBU in combination with PARP inhibitor talazoparib. The text has this:
FIG. 9 depicts cell viability of HCC1937 BRCA-mutant TNBC cells treated with LLM418-MCBU and PARP inhibitor talazoparib.

The next test deals with LIF induced p-STAT3. Nature of the test: Selectivity study, western blot, T47D cells, LIF stimulation. Particulars: T47D breast cancer cells, compound, then cytokine. The protocol: as §1, §2
[7] abbreviates: Table 1 batch studies, read-out: IC50 Values in Breast Cancer Cell Lines, MDA-MB-231.
Where [8] appears, read: Table 3 batch studies (independent from Table 1), read-out: MDA-MB-231 IC50.
The mark [9] stands for this setting: MDA-MB-231, Table 1 batch studies, read-out: IC50 Values in Breast Cancer Cell Lines, MDA-MB-231 Bone Metastatic.
Where [10] appears, read: MDA-MB-231, Table 3 batch studies (independent from Table 1), read-out: MDA-MB-231 Bone Metastatic IC50.
Where [11] appears, read: SUM159, Table 1 batch studies, read-out: IC50 Values in Breast Cancer Cell Lines, SUM159.
Setting [12] is: SUM159, Table 3 batch studies (independent from Table 1), read-out: SUM159 IC50.

Like-named read-outs stand apart in the source and are kept apart here.

For the molecule `CCn1ccc(-c2ccccc2NC(=O)c2ccc(OCCN3CCCCC3)cc2)n1` [LLM418-Et, N-(2-(1-ethyl-1H-pyrazol-3-yl)phenyl)-4-(2-(piperidin-1-yl)ethoxy)benzamide], the “Inhibition of IFN-7 induced p-STAT1” value with induced p-STAT1 is “inhibit both IL-6 induced p-STAT3 and IFN-7 induced p-STAT1”. The IC50 (commonly the concentration at which inhibition is half-maximal) was found to be 17.5 µM in test [1] (setting [7]); 17.5 µM in test [1] (setting [8]); 18.2 µM in test [2]; 16.8 µM in test [3] (setting [9]); 16.8 µM in [3] (setting [10]); 13.5 µM in test [4] (setting [11]). Moreover, in test [4] (setting [12]), the concentration for half-maximal inhibition (IC50) is 17.4 µM. The “Inhibition of IL-6 induced p-STAT3” value with IL-6 induced p-STAT3 was “inhibit both IL-6 induced p-STAT3 and IFN-7 induced p-STAT1”.
`O=C(Nc1ccccc1-c1ccn(CC2CCC2)n1)c1ccc(OCCN2CCCCC2)cc1` [LLM418-MCBu, N-(2-(1-(cyclobutylmethyl)-1H-pyrazol-3-yl)phenyl)-4-(2-(piperidin-1-yl)ethoxy)benzamide]: the half-maximal inhibitory concentration (IC50) in [1] (setting [7]) was found to be 18.5 µM; in test [1] (setting [8]), 18.5 µM; in [2], 13.9 µM; in [3] (setting [9]), 7.3 µM; in test [3] (setting [10]), 7.3 µM; in [4] (setting [11]), 10.5 µM. Moreover, the IC50 in test [4] (setting [12]) was determined as 10.5 µM. Further, the figures for the “Inhibition of IL-6 induced p-STAT3” value in the test on IL-6 induced p-STAT3 and in the test on IL-6 induced p-STAT3 (listed as LLM418-MCBU) were “inhibited IL-6 selectively in a dose-dependent manner” and “selectively inhibits IL-6 induced p-STAT3”, respectively. Moreover, the “Inhibition of pSTAT3, TNBC cell line” value in the test with pSTAT3 in TNBC cell line is recorded as “inhibits pSTAT3”. Further, the “Inhibition of pSTAT3, T47D cell line” value with pSTAT3 in T47D cell line is “inhibits pSTAT3”. Also, the “Inhibition of pSTAT3, BRCA-mutant cell line” value in [5] was “inhibits pSTAT3”. In addition, the “CI (synergy in inhibiting cell viability)” value in test [6] is recorded as below 1.0.
Take `O=C(Nc1ccccc1-c1ccn(C2CCC2)n1)c1ccc(OCCN2CCCCC2)cc1` [LLM418-CBU, N-(2-(1-cyclobutyl-1H-pyrazol-3-yl)phenyl)-4-(2-(piperidin-1-yl)ethoxy)benzamide]: the “Inhibition of IFN-7 induced p-STAT1” value in the test with induced p-STAT1 is “also inhibits IFN-7 induced p-STAT1”. Moreover, the IC50 came to 49.7 µM in [1] (setting [7]); 30.1 µM in test [1] (setting [8]); 16.1 µM in test [2]; 11.8 µM in test [3] (setting [9]); 21.1 µM in [3] (setting [10]); 5.9 µM in [4] (setting [11]). The concentration for half-maximal inhibition (IC50) in test [4] (setting [12]) came out at 15.1 µM. Also, the “Inhibition of IL-6 induced p-STAT3” value with IL-6 induced p-STAT3 was “inhibits IL-6 induced p-STAT3”. In addition, the “Inhibition of LIF induced p-STAT3” value in the test on LIF induced p-STAT3 is on record as “also inhibits”.
As to `CC(C)n1ccc(-c2ccccc2NC(=O)c2ccc(OCCN3CCCCC3)cc2)n1` [LLM418-iPR, N-(2-(1-isopropyl-1H-pyrazol-3-yl)phenyl)-4-(2-(piperidin-1-yl)ethoxy)benzamide], the “Inhibition of IFN-7 induced p-STAT1” value with induced p-STAT1 is “inhibit both IL-6 induced p-STAT3 and IFN-7 induced p-STAT1”. In addition, the IC50 in [1] (setting [7]) stood at 19 µM; in test [1] (setting [8]) it was 19 µM; in [2] it was 12.1 µM; in test [3] (setting [10]) it was 29.7 µM; in test [4] (setting [11]), 9.1 µM; in test [4] (setting [12]) it was 9.1 µM. Besides, the “Inhibition of IL-6 induced p-STAT3” value with IL-6 induced p-STAT3 was “inhibit both IL-6 induced p-STAT3 and IFN-7 induced p-STAT1”.
